Here are results for two compounds from patent US8962880B2, “Amorphous asiatic tromethamine salt and preparation method thereof” (Shanghai Institute of Pharmaceutical Industry, priority 2011, dated 2015).

In brackets after ≈: the same amount, converted by molar mass.

Series [1] can be described thus: physchem.
The conditions of series [2]: in vivo, 50 mg.

In general, solubility refers to the concentration that dissolves in the medium under given conditions. In the case of `C[C@H]1[C@H](C)CC[C@]2(C(=O)O)CC[C@]3(C)C(=CC[C@@H]4[C@@]5(C)C[C@@H](O)[C@H](O)[C@@](C)(CO)[C@@H]5CC[C@]43C)[C@H]12` [asiatic acid, 2α,3β,23-trihydroxy-ursa-12-en-28-oic acid], the solubility in series [1] (organic solvent or mixture) came to 33.1 mg/mL (≈ 67.7 mM); in series [1] (water), 0.03 mg/mL (≈ 0.0614 mM). Turning to `C[C@H]1[C@H](C)CC[C@]2(C(=O)O)CC[C@]3(C)C(=CC[C@@H]4[C@@]5(C)C[C@@H](O)[C@H](O)[C@@](C)(CO)[C@@H]5CC[C@]43C)[C@H]12.NC(CO)(CO)CO` [comparative sample, asiatic acid tromethamine salt], the bioavailability entry in series [2] was “ca. 7.6%”.
